According to patent publication US20140066394A1, “Substituted 6-(Benzylamino) Purine Riboside Derivatives, Use Thereof and Compositions Containing These Derivatives” (Biopatterns, S.R.O, priority 2009, published 2014):

Legend:
[1] = test system: breast carcinoma cell line MCF-7; assay: In vitro cytotoxicity, Calcein AM assay, MCF7; type: cell-based, human; settings: Homo sapiens, MCF7, 72 hours
Excerpt: (§1) Low cytotoxicity of the compounds is the major property determining the cosmetic use. One of the parameters used, as the basis for cytotoxicity assays, is the metabolic activity of viable cells. For example, a microtiter assay, which uses the Calcein AM, is now widely used to quantitate cell proliferation and cytotoxicity. For instance, this assay is used in drug screening programs and in chemosensitivity testing. Because only metabolically active cells cleave Calcein AM, these assays detect viable cells exclusively. The quantity of […] Calcein AM corresponds to the number of vital cells in the culture.
(§2) Human T-lymphoblastic leukemia cell line CEM; promyelocytic HL-60 and monocytic U937 leukemias; breast carcinoma cell lines MCF-7, BT549, MDA-MB-231; glioblastoma U87MG cells; cervical carcinoma cells HELA; sarcoma cells U2OS and Saos2; hepatocellular carcinoma HepG2; mouse fibroblasts NIH3T3; mouse immortalized bone marrow macrophages B2.4 and B10A.4; P388D1 and L1210 leukemia; B16 and B16F10 melanomas; human osteosarcoma HOS; human myeloid leukemia K-562; human skin melanoma G-361 were used for routine screening of compounds. The cells were maintained in Nunc/Corning 80 cm^2 plastic tissue culture flasks and cultured in cell culture medium (DMEM with 5 g/l glucose, 2 mM glutamine, 100 U/mL penicillin, 100 μg/mL streptomycin, 10% fetal calf serum and sodium bicarbonate).
(§3) The cell suspensions that were prepared and diluted according to the particular cell type and the expected target cell density (2.500-30.000 cells per well based on cell growth characteristics) were added by pipette ([…]) into 96/well microtiter plates. Inoculates were allowed a pre-incubation period of 24 hours at 37° C. and 5% CO2 for stabilisation. Four-fold dilutions of the intended test concentration were added at time zero in 20 μl aliquots to the microtiter plate wells. Usually, the compound tested was evaluated at six 4-fold dilutions. In routine testing, the highest well concentration was 100 μM, but it can be the matter of change dependent on the agent. All drug concentrations were examined in duplicates. Incubations of cells with the tested compounds lasted for 72 hours at 37° C., in 5% CO2 atmosphere and 100% humidity. At the end of the incubation period, the cells were assayed by using Calcein AM. Ten microliters of the stock solution were pipetted into each well and incubated for 1 hour. Fluorescence (FD) was measured with the Labsystem FIA Reader Fluoroscan Ascent (UK). The tumour cell survival (GI50) was calculated using the following equitation: TCS=(FDdrug exposed well/mean FDeontrol wells)×100%. The GI50 value, the drug concentration lethal to 50% of the tumour cells, was calculated from the obtained dose response curves.
(§4) Zero cytotoxicity of the novel compounds is the basic prerequisite for agricultural and tumor-unrelated applications. The cytoxicity of the novel compounds was tested on a panel of cell lines of different histogenetic and species origin (Table 9). We show herein that equal activities were found in all tumour cell lines tested, however, the non-malignant cells, e.g. NIH3T3 fibroblasts and normal human lymphocytes, were resistant to 2,6-disubstituted purine ribosides induced cytotoxicity. The compounds listed in Tab. 9 can be divided into 2 groups. The first group contains “classical cytokinins” represented by 6-substituted purine ribosides (which are known in the prior art). The second group contains the novel 2,6-disubstituted derivatives of these compounds. […] GI50 for NIH3T3 fibroblasts and normal human lymphocytes was always higher than 100 μM. The novel derivatives show no toxicity to normal and tumour cells in concentrations about 100 μM and thus are more suitable for agricultural applications than “classical cytokinins” (6-substituted purine riboside derivatives).

β-adrenergic receptors = assay: Isoproterenol-induced cAMP synthesis in rat C6 glioma (anti-inflammatory activity); type: cell-based
Experimental: Anti-inflammatory activity of several of the 2-substituted 6-benzylaminopurine riboside derivatives of this invention was determined; kinetin riboside was also evaluated as a control. Rat C6 glioma (ATCC No. CCL107) was cultivated in monolayer in serum-free chemically defined medium containing Ham's F10/minimal essential medium (1:1 v/v), 2 mM L-glutamine, 1% (v/v) minimal essential medium vitamins (100×), 1% (v/v) minimal essential medium nonessential amino acids (100×), 100 U/mL penicillin, […], and 30 nM sodium selenite. Incubation was performed at 37° C. in a humidified atmosphere. The assays were performed in the logaritmic growth phase at a density of 2.5×10^5 cells/cm^2.
Intracellular cAMP synthesis was induced by addition of 5 mM (−)-isoproterenol; various amounts of test compounds were added at the same time as the (−)-isoproterenol. After […] incubation at 37° C., the medium was removed and the cellular amount of cAMP was determined using the cAMP-enzyme immunoassay kit from Amersham. The I50 value was determined from a dose-response curve in duplicate. The effect of nine purine analogues was measured after simultaneous addition with isoproterenol.
As P2Y1-like and A2 purinergic receptors, negatively and positively coupled to adenylate cyclase respectively, are present on rat C6 glioma as to be determined if the modulation of the synthesis of cAMP is due to inhibition of the activation of β-adrenergic receptors by isoproterenol are due to activation of purinergic receptors.

neutrophils = assay: Neutrophil IL8 release, ELISA; type: cell-based; settings: Homo sapiens, primed neutrophils, ELISA (FIG. 3)
Experimental: Neutrophils were cultured at 2×10^6 cells/ml in RPMI1640 medium containing human serum antibiotics and 20 ng/ml TNFα for 10 minutes prior to addition of a range of concentrations of compound 10. Release of IL8 was monitored after a 4 h period by ELISA. Data are mean of duplicate measurements representative of 5 separate experiments.
Anti-inflammatory effects against neutrophils were determined by assessing effects of several of the compounds on neutrophil inflammatory activity (superoxide generation, secretion of chemoattractant IL8 and degranulation to release myeloperoxidase). Neutrophils were isolated from human blood to a purity of greater than 95% and were cultured in RPMI1640 medium containing 2% human AB serum, 2 mM L-glutamine and antibiotics (100 U/ml penicillin, […] streptomycin). Neutrophils were primed for 30 minutes with 50 ng/ml GM-CSF prior to treatment with the bacterial stimulant fMLP (100 ng/ml) and measurement of superoxide generation in a lucigenin based assay (see Pongracz J and Lord J M 1998, Biochem. Biophys. Res. Commun. 247, 624-629) and release of IL8 and myeloperoxidase using an ELISA method. The novel compounds were added to the culture at a range of concentrations (0.1-100 μM) 10 minutes prior to addition of fMLP. […]

[2] = test system: Human T-lymphoblastic leukemia cell line CEM; assay: In vitro cytotoxicity, Calcein AM assay, CEM; type: cell-based; settings: Homo sapiens, 72 hours
Excerpt: as §1, §2, §3, §4

Effect (modulation of isoproterenol-induced cAMP synthesis) (β-adrenergic receptors; added simultaneously with (−)-isoproterenol): inhibition | IC50 (β-adrenergic receptors; cellular cAMP by enzyme immunoassay, dose-response curve in duplicate, read-out: I50): 7.5 ± 1 µM | IC50 (neutrophils): 0.05 µM
SMILES: COc1cccc(CNc2nc(Cl)nc3c2ncn3C2OC(CO)C(O)C2O)c1O (centres unmarked) [Compound 10, 2-Chloro-6-(2-hydroxy-3-methoxybenzylamino)purine riboside]
GI50 [1]: > 100 µM | GI50 [2]: > 100 µM
